In ChEMBL document CHEMBL2074494 (Biopharm Drug Dispos, 2004):

Biological target: ATP-dependent translocase ABCB1 (Homo sapiens, UniProt P08183)
Assay: TP_TRANSPORTER: transepithelial transport in Caco-2 cells
Format: functional, cell-based

ATP-dependent translocase ABCB1, sequence (P08183 whole entry): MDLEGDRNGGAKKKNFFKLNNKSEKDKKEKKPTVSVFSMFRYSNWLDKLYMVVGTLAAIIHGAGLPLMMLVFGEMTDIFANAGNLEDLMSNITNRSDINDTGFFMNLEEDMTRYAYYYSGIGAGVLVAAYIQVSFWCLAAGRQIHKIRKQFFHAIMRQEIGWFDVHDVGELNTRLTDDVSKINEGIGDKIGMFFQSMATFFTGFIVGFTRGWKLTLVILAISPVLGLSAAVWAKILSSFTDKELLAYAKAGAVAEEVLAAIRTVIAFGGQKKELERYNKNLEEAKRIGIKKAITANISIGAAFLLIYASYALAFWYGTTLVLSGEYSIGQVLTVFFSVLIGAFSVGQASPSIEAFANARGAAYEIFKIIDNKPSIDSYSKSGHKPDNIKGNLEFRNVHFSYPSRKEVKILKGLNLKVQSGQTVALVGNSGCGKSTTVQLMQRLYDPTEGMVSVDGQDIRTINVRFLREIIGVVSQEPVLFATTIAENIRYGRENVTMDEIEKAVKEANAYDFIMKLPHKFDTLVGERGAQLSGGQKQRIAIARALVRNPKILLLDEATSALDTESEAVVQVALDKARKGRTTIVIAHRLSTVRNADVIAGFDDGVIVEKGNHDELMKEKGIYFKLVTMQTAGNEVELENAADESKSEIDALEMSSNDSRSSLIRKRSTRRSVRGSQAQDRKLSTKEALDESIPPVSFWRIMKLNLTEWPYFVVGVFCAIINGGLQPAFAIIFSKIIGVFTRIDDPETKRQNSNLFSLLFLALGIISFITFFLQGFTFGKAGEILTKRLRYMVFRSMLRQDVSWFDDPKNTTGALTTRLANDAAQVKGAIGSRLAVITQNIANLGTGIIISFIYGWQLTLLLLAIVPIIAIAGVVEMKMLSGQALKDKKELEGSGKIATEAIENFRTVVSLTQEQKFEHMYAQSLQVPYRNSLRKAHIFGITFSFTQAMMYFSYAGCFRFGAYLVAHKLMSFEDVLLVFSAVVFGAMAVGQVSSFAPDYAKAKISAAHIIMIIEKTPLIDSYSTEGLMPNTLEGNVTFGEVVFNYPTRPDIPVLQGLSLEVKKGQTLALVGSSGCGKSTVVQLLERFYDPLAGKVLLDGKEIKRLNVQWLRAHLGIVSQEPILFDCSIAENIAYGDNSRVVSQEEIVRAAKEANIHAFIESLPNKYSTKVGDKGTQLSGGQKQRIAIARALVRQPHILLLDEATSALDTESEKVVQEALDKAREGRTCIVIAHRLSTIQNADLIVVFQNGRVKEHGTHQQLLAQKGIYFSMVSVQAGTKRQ

SMILES	Activity
CCC(=C(c1ccc(O)cc1)c1ccc(OCCN(C)C)cc1)c1ccccc1	is not a substrate [-]
CC/C(=C(\c1ccccc1)c1ccc(OCCN)cc1)c1ccccc1 [DESMETHYL TAMOXIFEN]	is not a substrate [-]
